Assay results published in ChEMBL document CHEMBL3108764, “Tankyrase inhibitors: potential treatment of hyperproliferative diseases” (ACS Med Chem Lett, 2014).

Experiments:
[1] = biological target: T1, Poly [ADP-ribose] polymerase tankyrase-1 (Homo sapiens, UniProt O95271); assay: Inhibition of human TNKS1 incubated for 30 mins prior to substrate addition measured after 2 hrs by HTRF method
T1 sequence (O95271 whole entry): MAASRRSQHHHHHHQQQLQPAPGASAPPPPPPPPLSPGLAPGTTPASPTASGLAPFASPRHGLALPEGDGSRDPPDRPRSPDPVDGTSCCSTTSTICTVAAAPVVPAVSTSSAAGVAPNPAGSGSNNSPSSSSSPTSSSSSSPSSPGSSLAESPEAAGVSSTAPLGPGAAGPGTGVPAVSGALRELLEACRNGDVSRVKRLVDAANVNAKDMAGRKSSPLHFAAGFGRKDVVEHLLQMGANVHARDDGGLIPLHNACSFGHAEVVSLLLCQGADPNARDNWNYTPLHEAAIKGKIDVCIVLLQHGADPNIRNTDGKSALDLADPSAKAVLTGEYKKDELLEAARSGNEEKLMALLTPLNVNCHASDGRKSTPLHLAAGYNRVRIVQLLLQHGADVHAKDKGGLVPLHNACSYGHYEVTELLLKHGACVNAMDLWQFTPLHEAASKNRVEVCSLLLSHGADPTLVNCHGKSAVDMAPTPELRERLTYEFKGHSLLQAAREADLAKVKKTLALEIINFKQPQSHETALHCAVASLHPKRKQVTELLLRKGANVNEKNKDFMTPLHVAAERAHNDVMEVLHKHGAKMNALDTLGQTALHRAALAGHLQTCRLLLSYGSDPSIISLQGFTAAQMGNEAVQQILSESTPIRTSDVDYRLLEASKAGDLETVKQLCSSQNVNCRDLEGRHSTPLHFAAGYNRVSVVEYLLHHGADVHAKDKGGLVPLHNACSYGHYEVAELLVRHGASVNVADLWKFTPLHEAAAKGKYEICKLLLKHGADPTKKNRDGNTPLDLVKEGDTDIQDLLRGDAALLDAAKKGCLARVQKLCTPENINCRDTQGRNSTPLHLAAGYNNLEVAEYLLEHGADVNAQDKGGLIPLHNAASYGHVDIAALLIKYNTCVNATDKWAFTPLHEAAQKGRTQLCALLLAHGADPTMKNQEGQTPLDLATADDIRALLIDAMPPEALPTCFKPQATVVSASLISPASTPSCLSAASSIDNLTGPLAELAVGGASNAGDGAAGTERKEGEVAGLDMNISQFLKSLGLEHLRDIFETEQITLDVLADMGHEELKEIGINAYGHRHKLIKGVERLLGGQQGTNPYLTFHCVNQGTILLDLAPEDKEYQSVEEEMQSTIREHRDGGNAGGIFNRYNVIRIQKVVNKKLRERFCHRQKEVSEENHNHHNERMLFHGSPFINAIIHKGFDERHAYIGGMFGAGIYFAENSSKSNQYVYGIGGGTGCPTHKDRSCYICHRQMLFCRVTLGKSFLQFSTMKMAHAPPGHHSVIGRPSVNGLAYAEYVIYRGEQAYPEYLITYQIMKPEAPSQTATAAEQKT

[2] = biological target: T1, Poly [ADP-ribose] polymerase tankyrase-1; assay: Inhibition of human TNKS1 after 1 to 2 hrs by fluorescence polarization method

IC50 [1] [nM]	IC50 [2] [nM]	SMILES
31.6	7.94	N#Cc1c(Cn2c(=O)n(C[C@H]3CC[C@H](C(=O)O)CC3)c(=O)c3ccccc32)cccc1C(F)(F)F
50.1	6.31	Cc1c(F)ccc2c1c(=O)n(C[C@H]1CC[C@H](C(=O)O)CC1)c(=O)n2Cc1cccc(C(F)(F)F)c1C#N
316		Cc1cccc2c1c(=O)n(C[C@H]1CC[C@@H](C(=O)O)CC1)c(=O)n2Cc1cccc(C(F)(F)F)c1C#N
